Laboratory results from patent EP0451422A1, “Pharmaceutically active fluoromethyltyrosine compounds” (MERRELL DOW PHARMACEUTICALS INC., priority 1990, dated 1991).

Biological target: T1, tyrosine hydroxylase (Mus musculus, UniProt P24529)
T1 construct: from tissue; host or cells: living mice
Experiment: In vivo inhibition of tyrosine hydroxylase (cortical norepinephrine levels in mice, HPLC with electrochemical detection)
Details: mice injected intraperitoneally; cerebral cortices removed six hours later; norepinephrine in tissue; dose not given; control 198.2 +/- 18.4 ng/g
Method: The tyrosine hydroxylase inhibitory properties of the compounds of this invention can readily be determined by standard and well known procedures. For example, determination of tyrosine hydroxylase inhibition is exemplified by a procedure wherein mice are injected intraperitoneally with a test compound, and six hours later the mice are sacrificed, the cerebral cortices removed and frozen on dry ice. The levels of norepinephrine in the tissue are measured by HPLC with electrochemical detection, according to the process of Dudley, et al, J. Pharmacol. Exp. Ther., 217, 834-840 (1981). Reduction in cortical norepinephrine levels indicates effective, in vivo inhibition of tyrosine hydroxylase. The following Table I illustrates the decreased levels of norepinephrine after treatment with a compound of this invention (2-fluoromethyl tyrosine) in relation to levels of norepinephrine present after treatment with a known inhibitor (alpha-methyl-p-tyrosine), and as compared to the amount of norepinephrine produced without treatment with a test compound (control).

T1 sequence (P24529 whole entry): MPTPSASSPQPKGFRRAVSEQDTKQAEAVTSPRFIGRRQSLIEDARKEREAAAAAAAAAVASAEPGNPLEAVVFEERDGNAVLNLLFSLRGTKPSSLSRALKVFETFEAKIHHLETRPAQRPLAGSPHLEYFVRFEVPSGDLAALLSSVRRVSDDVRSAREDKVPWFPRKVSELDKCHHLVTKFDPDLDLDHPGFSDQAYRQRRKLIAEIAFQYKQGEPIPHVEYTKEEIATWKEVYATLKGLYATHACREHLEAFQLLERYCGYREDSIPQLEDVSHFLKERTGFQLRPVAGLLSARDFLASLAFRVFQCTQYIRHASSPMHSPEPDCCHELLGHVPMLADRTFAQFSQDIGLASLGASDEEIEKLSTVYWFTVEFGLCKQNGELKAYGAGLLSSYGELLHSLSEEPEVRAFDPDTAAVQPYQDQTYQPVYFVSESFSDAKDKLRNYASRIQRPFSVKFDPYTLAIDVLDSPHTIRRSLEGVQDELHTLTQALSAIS

NOREPINEPHRINE [ng/g]	SMILES
124.9 ± 11.4	N[C@@H](Cc1ccc(O)cc1CF)C(=O)O [2-fluoromethyl-tyrosine, 2-Fluoromethyltyrosine]
115.7 ± 18.6	CC(N)(Cc1ccc(O)cc1)C(=O)O (stereo not drawn) [α-methyl-p-tyrosine]
